Results on ten compounds are retold here after patent publication US20090264415A2 (priority 2004, published 2009).

Like-named read-outs stand apart in the source and are kept apart here.

Data set [1] relates to peripheral blood mononuclear cells (PBMC) stimulated with allogeneic PBMC or EBV-transformed human B cells (RPMI1788). The data set can be described thus: Mixed lymphocyte reaction (MLR) assay. In kind it is cell-based. In short, it runs like this:
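Responder PBMC co-cultured in triplicate with 30 Gy-irradiated allogeneic PBMC or RPMI1788 B cells plus compound (DMSO stock 10 mM, diluted in medium). After 5 days at 37° C, 1 μCi [3H]-thymidine added for 16 h more; incorporated cpm counted and proliferation inhibition calculated.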

The subject of data set [2] is production of human TNF-α by PBMC in response to LPS. The data set can be described thus: TNF-α assay (LPS-stimulated PBMC, sandwich ELISA). In kind it is cell-based. In short, it runs like this:
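Human PBMC isolated from heparinised blood by density gradient (10^6 cells/ml) stimulated with LPS at 1 μg/ml final, with test compound at 0.1, 1 and 10 μM, 72 h at 37° C, 5% CO2. Supernatant TNF-α quantified by sandwich ELISA against recombinant standard curve; % suppression calculated.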
On the technique in general: An ELISA detects its analyte on a solid surface through an enzyme-linked reagent.

Data set [3] deals with HCV replicon in Huh-5-2 cells. The data set can be described thus: Anti-HCV assay/replicon assay (luciferase). The class given is cell-based. The conditions noted are these: Hepatitis C virus. The protocol: (§1) Huh-5-2 cells [a cell line with a persistent HCV replicon I3891uc-ubi-neo/NS3-3′/5.1; replicon with firefly luciferase-ubiquitin-neomycin phosphotransferase fusion protein and EMCV-IRES driven NS3-5B HCV polyprotein] was cultured in a RPMI medium (commercially available from Gibco) supplemented with 10% fetal calf serum, 2 mM L-glutamine (commercially available from Life Technologies), 1× non-essential amino acids (commercially available from Life Technologies); 100 IU/ml penicillin, 100 μg/ml streptomycin and 250 μg/ml G418 (Geneticin, commercially available from Life Technologies). Cells were seeded at a density of 7,000 cells per well in 96 well View Plate (commercially available from Packard) in a medium containing the same components as described above, except for G418. Cells were allowed to adhere and proliferate for 24 hours. […] Luciferase activity was measured by adding 50 μl of 1×Glo-lysis buffer (commercially available from Promega) for 15 minutes followed by 50 μl of the Steady-Glo Luciferase assay reagent (commercially available from Promega). Luciferase activity was measured with a luminometer and the signal in each individual well was expressed as a percentage of the untreated cultures. […] Instead the density of the culture was measured by means of the MTS method (commercially available from Promega). […]
On the technique in general: A replicon is a self-replicating genome or part of one, used to study replication in cells.

A short description of data set [4]: Cytostatic effect on Huh-5-2 cells (MTS method). The class given is cell-based. The note with it: human, 50% inhibition of cell growth. The protocol: as §1
In general terms: Tetrazolium assays rely on reduction of a dye to a coloured formazan, in cell work by metabolically active cells.

For data set [5], the system named is production of human IL-1β by PBMC in response to LPS. The data set can be described thus: IL-1β assay (LPS-stimulated PBMC, sandwich ELISA). In kind it is cell-based. The conditions noted are these: LPS 1 μg/ml, 72 hours. As to the method: Peripheral blood mononuclear cells (herein referred as PBMC), in response to stimulation by lipopolysaccharide (LPS), a gram-negative bacterial endotoxin, produce various […], in particular human IL-1β. Inhibition of the activation of PBMC can therefore be measured by the level of suppression of the production of IL-1β by PBMC in response to stimulation by LPS.
Such inhibition measurement was performed as follows: PBMC were isolated from heparinized peripheral blood by density gradient centrifugation over Lymphoprep (commercially available from Nycomed, Norway). LPS was then added to the PMBC suspension in complete medium (10^6 cells/ml) at a final concentration of 1 μg/ml. The pteridine derivative to be tested was added at different concentrations (0.1 μM, 1 μM and 10 μM) and the cells were incubated at 37° C. for 72 hours in 5% CO2. The supernatants were collected, then IL-1β concentrations were measured with an anti-IL-1β antibody in a sandwich ELISA. The calorimetric reading of the ELISA was measured by a Multiskan RC plate reader (commercially available from ThermoLabsystems, Finland) at 450 nm (reference wavelength: 690 nm). Data analysis was performed with Ascent software 2.6. (also from ThermoLabsystems, Finland): a standard curve (recombinant human IL-1β) was drawn and the amount (pg/ml) of each sample on the standard curve was determined.
The % suppression of human IL-1β by the pyrido[3,2-d]pyrimidine derivatives of this invention was calculated using the formula: [formula]

Data set [6] deals with phosphodiesterase-4 (PDE-4) extract from U937 cells. The data set can be described thus: Phosphodiesterase-4 inhibiting activity (isotopic two-step method). The class given is biochemical. The note with it: 1.01 μM [3H]cAMP+cAMP.
Where [7] appears, read: Homo sapiens, RPMI-1788, 50% suppression of the MLR, [3H]-thymidine incorporation, read-out: MLR.
The mark [8] stands for this setting: Homo sapiens, PBMC, LPS 1 μg/ml, 72 hours, read-out: TNF α.

The compound `CC(=O)Nc1nc2ccc(Cl)nc2c(=O)[nH]1` had a melting point of 317 to 319 °C.
The compound `CCOc1nc(NC(C)=O)nc2ccc(Cl)nc12` registered a melting point of 233 °C.
On to `CC(C)Oc1nc(N)nc2ccc(-c3ccc(F)cc3)nc12`, for which the melting point was 191 to 192 °C.
Regarding `CCCCOc1nc(NC(C)=O)nc2ccc(-c3ccc(F)cc3)nc12`, the melting point turned out to be 170 °C.
In turn, `CCC(C)Oc1nc(N)nc2ccc(-c3ccc(F)cc3)nc12` (stereo not drawn) registered a melting point of 148 °C.
Regarding `COc1ccc(-c2ccc3nc(N)nc(Nc4cccc(C)c4)c3n2)cc1OC` [Example 27, 2-amino-4-(3-methyl-anilino)-6-(3,4-dimethoxyphenyl)-pyrido[3,2-d]pyrimidine], the IC50 in data set [1] (setting [7]) is 5700 nM; in data set [2] (setting [8]) it was 6.4 µM. The EC50 in data set [3] (Huh-5-2 replicon cells, 72 hours, read-out: EC50) was 500 nM. In data set [4], this compound showed a CC50 at 72 h of more than 50000 nM.
For the compound `COc1ccc(-c2ccc3nc(N)nc(NCc4cccs4)c3n2)cc1OC` [Example 32, 2-amino-4-(thienyl-2-methylamino)-6-(3,4-dimethoxyphenyl)-pyrido[3,2-d]pyrimidine-2,4-diamine], the IC50 in data set [1] (50% suppression of the MLR, [3H]-thymidine incorporation, read-out: MLR) came to 800 nM; in data set [2] (LPS 1 μg/ml, 72 hours, read-out: TNF α) it was 0.8 µM; in data set [5], 6900 nM.
`COc1ccc(-c2ccc3nc(N)nc(N[C@H]4CC[C@H](N)CC4)c3n2)cc1OC` [Example 36]: the IC50 in data set [1] (Homo sapiens, RPMI-1788, read-out: MLR (μM)) was determined as 6500 nM; in data set [2] (Homo sapiens, PBMC, 72 h, read-out: TNF α (μM)), 2.9 µM. The half-maximal effective concentration (EC50) in data set [3] (Huh-5-2, 72 h) amounted to 1000 nM. This compound also came in with a CC50 at 72 h in data set [4] of 7700 nM.
Take `COc1ccc(-c2ccc3nc(N)nc(N4CCOCC4)c3n2)cc1OC` [Example 41, 2-amino-4-morpholino-6-(3,4-dimethoxyphenyl)-pyrido[3,2-d]pyrimidine]: the IC50 in data set [1] (setting [7]) worked out at 37 nM; in data set [2] (setting [8]), 0.03 µM; in data set [5] (Homo sapiens, PBMC) it was 7900 nM; in data set [6], 410 nM.
`COc1ccc(-c2ccc3nc(N)nc(N4CCN(C(=O)Nc5cccc(C)c5)CC4)c3n2)cc1OC` [Example 42, 2-amino-4-(4-{[(3-methylphenyl)amino]carbonyl}piperazin-1-yl)-6-(3,4-dimethoxyphenyl)-pyrido[3,2-d]pyrimidine]: the IC50 worked out at 0.064 nM in data set [1] (setting [7]); 0.06 µM in data set [2] (setting [8]); 1800 nM in data set [5] (Homo sapiens, PBMC); 61 nM in data set [6].

In general, melting point refers to the temperature of the solid-liquid transition. By EC50 is commonly meant the concentration that produces a half-maximal response. By CC50 is commonly meant the concentration that lowers cell viability or growth by half.
